Results: US20060276412A1, “METHODS AND COMPOSITIONS FOR MANAGING PSYCHOTIC DISORDERS” (priority 2005, published 2006)
“And” between values parts separate entries of the source, which are not always exact repeats. Identical values can stand only once. Like-named read-outs stand apart in the source and are kept apart here.

Assays:
[1] = test system: serotonin (5HT) in medial prefrontal cortex; experiment: Brain microdialysis: serotonin in mPFC; type: in vivo, rats; conditions: 25 mg/kg zonisamide
Description: (§1) 62 adult Sprague-Dawley male rats (Harland, Indianapolis) weighing 300-350 g were used in the following studies. The rats were quarantined for at least five days in group housing. Following the quarantine procedure, rats were maintained in individual cages. For surgical implantation with intracerebral guides, guides were inserted directly above either the hypothalamus (HT) (31 rats), or the medial prefrontal cortex (mPFC) (31 rats). Stereotaxic coordinates (Paxinos and Watson, 1986) provided below were used to position the guide cannulae and/or probes: Animals were anesthetiszed according using standard procedures. The head of each animal was shaved from the front of the eyes to the back of the skull. Shaved areas were disinfected, and the animals were placed in stereotaxic frame ear bars. The animal was aligned with the incisor bar. The animal's scalp was cut with a sharp #15 scalpel blade. If the bone began to bleed, bone wax was applied to the incision. Periosteal tissue was cleaned from the skull to the lateral ridges with a cotton swab, and clamps were used to pull the skin out of the way. The probe or guide was placed in the clamp, such that the angled outlet cannula of the microdialysis probe was angled towards the animal's tail. The target coordinates were calculated, and this point was marked on the skull. Two holes in opposing skull bones were drilled for bone anchor screws and thread screws. The dura was torn away with a sharp, pointed object. The guide cannulae were placed at the dorsal/ventral zero point. […] Using dental acrylic, the cannulae were cemented to the bone anchor screws. The cement was allowed to harden and the rodent was removed from the stereotaxic frame. The cranial and caudal aspects of the incision were sutured. The animals were allowed to recover for three to five days. Stylets in the guides were replaced with dialysis probes on the evening prior to study to allow for animal acclimation and to reestablish the integrity of the blood brain barrier. […] Rats were weighed pre-surgery, every 1-2 days post-surgery until time of microdialysis, and postmortem. Microdialysis probes used in the experiments described below were first soaked in standard Ringer's perfusion medium for 30 minutes. Inlet and outlet tubing was connected to each probe using flanged connectors. The outlet tubing was connected to a fraction collector, and the inlet was connected to and […] syringe drive. The probes were immersed in fresh Ringer's solution and flushed with Ringer's perfusion medium at a rate of 2 μl/min for 1 hour. The probe was then transferred to the intracerebral guide on the rat's skull. […] Water was added to obtain a final concentration of 0.3 mg/ml. […] Zonisamide was dissolved in DMSO. […] The final concentration of zonisamide was 7.5 mg/ml. The drug solution was maintained at 37° C. prior to injection. The rats were divided into ten test groups. Five animals were analyzed for each test group. The test groups were as follows: For the microdialysis experiments, perfusion consisted of 2 μl/min delivery of sterile standard Ringer's solution for intervals of 20 minutes. Final collection volumes were 40 μl. 30 μl samples were analyzed for each analyte: DA, NE, 5HT. 12 pre-dose samples and 12 post dose samples were collected every 20 minutes for a duration of 4 hours, both pre-dose and post-dose. Six samples from the pre-dose and post-dose collections were analyzed for norepinephrine. The remaining six samples from the pre-dose and post-dose collections were analyzed for both dopamine and serotonin. Samples were chilled to -80° C. immediately following collection. The samples were analyzed using liquid chromatography with electrochemical detection using conventional techniques. See, e.g., Huang, T., R. et al. (1994) New […] Microbore Columns for Liquid Chromatography. Current Separations 12(4): 191-195. […] Concentrations of each compound are expressed as % baseline.

[2] = test system: dopamine (DA) in hypothalamus; experiment: Brain microdialysis: dopamine in hypothalamus; type: in vivo, rats; conditions: 25 mg/kg zonisamide
Description: as §1

[3] = test system: norepinephrine (NE) in medial prefrontal cortex; experiment: Brain microdialysis: norepinephrine in mPFC; type: in vivo, rats; conditions: 25 mg/kg zonisamide
Description: as §1

[4] = test system: serotonin (5HT) in hypothalamus; experiment: Brain microdialysis: serotonin in hypothalamus; type: in vivo, rats; conditions: 25 mg/kg zonisamide
Description: as §1

carbonic anhydrase = conditions: cited from earlier work
[5] = test system: dopamine (DA) in medial prefrontal cortex; experiment: Brain microdialysis: dopamine in mPFC; type: in vivo, rats; conditions: 25 mg/kg zonisamide
Description: as §1

[6] = patients presenting with primary obesity; cited from earlier work
[7] = test system: norepinephrine (NE) in hypothalamus; experiment: Brain microdialysis: norepinephrine in hypothalamus; type: in vivo, rats; conditions: 25 mg/kg zonisamide
Description: as §1

[8] = test system: psychotic patients (bipolar manic state, schizoaffective manic state, schizophrenic excitement); conditions: cited from earlier work; for patients showing remarkable global improvement: addition of zonisamide

## NS(=O)(=O)Cc1noc2ccccc12 [zonisamide]
[1]; 3 HOUR AVE
  Serotonin concentrations in mPFC: 77.954 % baseline and 77.9543 % baseline
[1]; 40 min post dose
  Serotonin concentrations in mPFC: 96.932 % baseline
[1]; 80 min post dose
  Serotonin concentrations in mPFC: 74.461 % baseline
[1]; 120 min post dose
  Serotonin concentrations in mPFC: 60.557 % baseline
[1]; 160 min post dose
  Serotonin concentrations in mPFC: 82.729 % baseline
[1]; 200 min post dose
  Serotonin concentrations in mPFC: 89.529 % baseline
[1]; 240 min post dose
  Serotonin concentrations in mPFC: 63.518 % baseline
[1]; -20 min pre dose
  Serotonin concentrations in mPFC: 107.652 % baseline
[1]; -60 min pre dose
  Serotonin concentrations in mPFC: 119.648 % baseline
[1]; -100 min pre dose
  Serotonin concentrations in mPFC: 72.700 % baseline
[2]; 3 HOUR AVE
  Dopamine concentrations in hypothalamus: 104.3854 % baseline and 105.438 % baseline
[2]; 40 min post dose
  Dopamine concentrations in hypothalamus: 121.635 % baseline
[2]; 80 min post dose
  Dopamine concentrations in hypothalamus: 72.946 % baseline
[2]; 120 min post dose
  Dopamine concentrations in hypothalamus: 91.707 % baseline
[2]; 160 min post dose
  Dopamine concentrations in hypothalamus: 66.181 % baseline
[2]; 200 min post dose
  Dopamine concentrations in hypothalamus: 143.010 % baseline
[2]; 240 min post dose
  Dopamine concentrations in hypothalamus: 123.012 % baseline
[2]; -20 min pre dose
  Dopamine concentrations in hypothalamus: 142.394 % baseline
[2]; -60 min pre dose
  Dopamine concentrations in hypothalamus: 56.252 % baseline
[2]; -100 min pre dose
  Dopamine concentrations in hypothalamus: 101.354 % baseline
[3]; 3 HOUR AVE
  Norepinephrine concentrations in mPFC: 114.112 % baseline and 114.142 % baseline
[3]; 20 min post dose
  Norepinephrine concentrations in mPFC: 164.376 % baseline
[3]; 60 min post dose
  Norepinephrine concentrations in mPFC: 102.033 % baseline
[3]; 100 min post dose
  Norepinephrine concentrations in mPFC: 105.920 % baseline
[3]; 140 min post dose
  Norepinephrine concentrations in mPFC: 102.114 % baseline
[3]; 180 min post dose
  Norepinephrine concentrations in mPFC: 115.233 % baseline
[3]; 220 min post dose
  Norepinephrine concentrations in mPFC: 95.176 % baseline
[3]; -40 min pre dose
  Norepinephrine concentrations in mPFC: 101.451 % baseline
[3]; -80 min pre dose
  Norepinephrine concentrations in mPFC: 106.249 % baseline
[3]; -120 min pre dose
  Norepinephrine concentrations in mPFC: 92.300 % baseline
[4]; 3 HOUR AVE
  Serotonin concentrations in hypothalamus: 96.664 % baseline and 96.6637 % baseline
[4]; 40 min post dose
  Serotonin concentrations in hypothalamus: 139.708 % baseline
[4]; 80 min post dose
  Serotonin concentrations in hypothalamus: 88.171 % baseline
[4]; 120 min post dose
  Serotonin concentrations in hypothalamus: 87.586 % baseline
[4]; 160 min post dose
  Serotonin concentrations in hypothalamus: 64.925 % baseline
[4]; 200 min post dose
  Serotonin concentrations in hypothalamus: 98.920 % baseline
[4]; 240 min post dose (Table 7)
  Serotonin concentrations in hypothalamus: 100.672 % baseline
[4]; +220 min post dose
  Serotonin concentrations in hypothalamus: 100.672 % baseline
[4]; -20 min pre dose
  Serotonin concentrations in hypothalamus: 133.061 % baseline
[4]; -60 min pre dose
  Serotonin concentrations in hypothalamus: 79.388 % baseline
[4]; -100 min pre dose
  Serotonin concentrations in hypothalamus: 87.552 % baseline
Carbonic anhydrase
  inhibitory effect on carbonic anhydrase: weak inhibitory effect
[5]; 3 HOUR AVE
  Dopamine concentrations in mPFC: 117.183 % baseline
[5]; 40 min post dose
  Dopamine concentrations in mPFC: 166.688 % baseline
[5]; 80 min post dose
  Dopamine concentrations in mPFC: 86.224 % baseline
[5]; 120 min post dose
  Dopamine concentrations in mPFC: 111.764 % baseline
[5]; 160 min post dose
  Dopamine concentrations in mPFC: 109.627 % baseline
[5]; 200 min post dose
  Dopamine concentrations in mPFC: 94.060 % baseline
[5]; 240 min post dose
  Dopamine concentrations in mPFC: 134.732 % baseline
[5]; -20 min pre dose
  Dopamine concentrations in mPFC: 98.672 % baseline
[5]; -60 min pre dose
  Dopamine concentrations in mPFC: 87.652 % baseline
[5]; -100 min pre dose
  Dopamine concentrations in mPFC: 113.677 % baseline
[6]
  weight loss: significant weight loss
[7]; 3 HOUR AVE
  Norepinephrine concentrations in hypothalamus: 124.221 % baseline and 124.272 % baseline
[7]; 20 min post dose
  Norepinephrine concentrations in hypothalamus: 194.380 % baseline
[7]; 60 min post dose
  Norepinephrine concentrations in hypothalamus: 151.267 % baseline
[7]; 100 min post dose
  Norepinephrine concentrations in hypothalamus: 101.287 % baseline
[7]; 140 min post dose
  Norepinephrine concentrations in hypothalamus: 99.489 % baseline
[7]; 180 min post dose
  Norepinephrine concentrations in hypothalamus: 102.237 % baseline
[7]; 220 min post dose
  Norepinephrine concentrations in hypothalamus: 91.722 % baseline
[7]; -40 min pre dose
  Norepinephrine concentrations in hypothalamus: 111.356 % baseline
[7]; -80 min pre dose
  Norepinephrine concentrations in hypothalamus: 88.184 % baseline
[7]; -120 min pre dose
  Norepinephrine concentrations in hypothalamus: 100.460 % baseline
[8]; all the patients (24)
  patients showing remarkable global improvement: Approximately 25%
  patients with more than moderate global improvement: Approximately 71%
[8]; bipolar group
  patients with more than moderate global improvement: ~80%
[8]; bipolar manic patients
  patients showing remarkable global improvement: ~33%
